Experimental data: patent US8536216B2, “Compositions based on aminoacids” (Professional Dietetics S.R.L., priority 2000, dated 2013)
Like-named read-outs stand apart in the source and are kept apart here.

Assays:
[1] = human, in vivo
[2] = Amino acids plasma modifications induced by acute ingestion of the mixture
athletes = assay: Comparative study in athletes: bench press, squat Romano, maximal power on braked bicycle ergometer; assay type: in vivo, human
Source text: The effects on energy balance of the an amino acids mixture according to the invention as above indicated were the subject of a comparative study with creatine, on a weight ratio (w/w), or with no treatment, on a large group of volunteers submitted to a rigid protocol of alimentation and training.

[3] = 15' after acute ingestion of the mixture according to the invention
[4] = 30' after acute ingestion of the mixture according to the invention
[5] = 60' after acute ingestion of the mixture according to the invention

| SMILES | Amino acid plasma level ([1]; 15 min) | Amino acid plasma level ([1]; 30 min) | Amino acid plasma level ([1]; 60 min) | Amino acid plasma level [2, 3] | Amino acid plasma level [2, 4] | Amino acid plasma level [2, 5] | Watt/Kg max (maximal power productive performance on a braked bicycle ergometer) (athletes; after one month of treatment and training, mixture 24 g/d, creatine 25 g/d) | Performances over basal and no treatment group (athletes; one month treatment and training) |
| --- | --- | --- | --- | --- | --- | --- | --- | --- |
| N=C(N)NCCC[C@H](N)C(=O)O [Arginine] | 85 ± 15 | 97 ± 13 | 82 ± 16 | – | – | – | – | – |
| N[C@@H](CS)C(=O)O [Cysteine] | 54 ± 6 | 61 ± 8 | 49 ± 7 | – | – | – | – | – |
| N[C@@H](CCC(=O)O)C(=O)O [Glutamate] | – | – | – | 563 ± 69 | 606 ± 32 | 502 ± 43 | – | – |
| N[C@@H](CCC(=O)O)C(=O)O [Glutamic acid] | – | – | – | 42 ± 6 | 44 ± 7 | 41 ± 5 | – | – |
| CC[C@H](C)[C@H](N)C(=O)O [Isoleucine] | 156 ± 24 | 162 ± 31 | 147 ± 32 | – | – | – | – | – |
| CC(C)C[C@H](N)C(=O)O [Leucine] | 68 ± 16 | 109 ± 19 | 71 ± 9 | – | – | – | – | – |
| NCCCC[C@H](N)C(=O)O [Lysine] | 182 ± 17 | 194 ± 26 | 179 ± 18 | – | – | – | – | – |
| CSCC[C@H](N)C(=O)O [Methionine] | 30 ± 6 | 32 ± 9 | 27 ± 4 | – | – | – | – | – |
| N[C@@H](Cc1ccccc1)C(=O)O [Phenylalanine] | 56 ± 9 | 61 ± 10 | 55 ± 7 | – | – | – | – | – |
| C[C@@H](O)[C@H](N)C(=O)O [Threonine] | 121 ± 15 | 137 ± 21 | 120 ± 16 | – | – | – | – | – |
| N[C@@H](Cc1ccc(O)cc1)C(=O)O [Tyrosine] | 62 ± 9 | 65 ± 14 | 59 ± 7 | – | – | – | – | – |
| CC(C)[C@H](N)C(=O)O [Valine] | 256 ± 19 | 294 ± 32 | 249 ± 26 | – | – | – | – | – |
| CN(CC(=O)O)C(=N)N [creatine] | – | – | – | – | – | – | 9.8 ± 0.6 watt/kg max | significant improvements of performances |
